≈ marks a conversion by molar mass, not a printed value.
Legend:
[1] = molecular target: T1, Peptide deformylase 1A, chloroplastic/mitochondrial (Arabidopsis thaliana, UniProt Q9FV53)
T1 sequence (Q9FV53 whole entry): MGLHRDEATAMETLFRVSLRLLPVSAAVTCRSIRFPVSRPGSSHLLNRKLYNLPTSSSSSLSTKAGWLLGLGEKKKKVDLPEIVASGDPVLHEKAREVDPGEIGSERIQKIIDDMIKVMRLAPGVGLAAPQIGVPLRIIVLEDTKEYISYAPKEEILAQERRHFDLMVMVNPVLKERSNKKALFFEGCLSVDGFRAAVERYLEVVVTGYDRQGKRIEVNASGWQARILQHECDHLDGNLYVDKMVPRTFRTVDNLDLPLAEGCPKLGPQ

Peptide deformylase = molecular target: T2, Peptide deformylase (Escherichia coli, UniProt Q9JN24)
T2 sequence (Q9JN24 whole entry): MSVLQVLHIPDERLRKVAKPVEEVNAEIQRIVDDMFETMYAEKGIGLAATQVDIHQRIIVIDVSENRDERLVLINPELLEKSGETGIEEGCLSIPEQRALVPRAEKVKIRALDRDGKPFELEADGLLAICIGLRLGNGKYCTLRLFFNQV

Bacillus subtilis [2] = assay: Antibacterial activity against Bacillus subtilis MO3482; assay type: functional
Escherichia coli [3] = assay: Antibacterial activity against Escherichia coli JM101Tr; assay type: functional
Escherichia coli [4] = assay: Antibacterial activity against Escherichia coli CAG1284; assay type: functional
Bacillus subtilis [5] = assay: Antibacterial activity against Bacillus subtilis 168; assay type: functional
Bacillus subtilis [6] = assay: Antibacterial activity against Bacillus subtilis D101; assay type: functional
Bacillus subtilis [7] = assay: Antibacterial activity against Bacillus subtilis Y101; assay type: functional
[8] = molecular target: T3, Peptide deformylase, mitochondrial (Homo sapiens, UniProt Q9HBH1)
T3 sequence (Q9HBH1 whole entry): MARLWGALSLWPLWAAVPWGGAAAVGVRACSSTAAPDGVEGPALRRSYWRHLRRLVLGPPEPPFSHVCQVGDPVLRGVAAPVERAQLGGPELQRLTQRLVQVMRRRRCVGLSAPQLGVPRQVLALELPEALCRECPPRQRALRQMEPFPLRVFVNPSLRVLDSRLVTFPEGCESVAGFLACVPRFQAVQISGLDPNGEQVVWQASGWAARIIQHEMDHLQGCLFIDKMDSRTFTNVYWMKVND

Bacillus subtilis [9] = assay: Antibacterial activity against Bacillus subtilis; assay type: functional
Escherichia coli [10] = assay: Antibacterial activity against Escherichia coli K37; assay type: functional

Row | Compound | IC50 [1] [µM] | IC50 (Peptide deformylase) [µM] | MIC (Escherichia coli [3]) [mg/L] | also measured
1 | CC(C)(C)OC(=O)NC(CNO)Cc1ccccc1 (stereo not given) | > 1000 | 52 |  | 
2 | O=C(CO)Cc1c[nH]c2ccc(Br)cc12 | 790 | 560 | > 300 | MIC (Bacillus subtilis [2]): > 300 mg/L; MIC (Escherichia coli [4]): > 300 mg/L; MIC (Bacillus subtilis [5]): > 300 mg/L; MIC (Bacillus subtilis [6]): > 300 mg/L; MIC (Bacillus subtilis [7]): > 300 mg/L
3 | CC(=O)SCC(=O)Cc1c[nH]c2ccccc12 | > 1000 | 200 |  | 
4 | Cc1[nH]c2ccc(Br)cc2c1CC(=O)NO | 450 |  | > 300 | IC50 [8]: 450 µM; MIC (Bacillus subtilis [9]): 220 mg/L (≈ 777 µM)
5 | COc1ccc2[nH]cc(CC(=O)NO)c2c1 | > 1000 |  | > 300 | MIC (Bacillus subtilis [9]): 155 mg/L (≈ 704 µM)
6 | Cc1c(CN(O)C=O)c2cc(Br)ccc2n1S(=O)(=O)c1ccccc1 | 35 | 0.03 | 65 (≈ 154 µM) | IC50 [8]: 200 µM; MIC (Bacillus subtilis [9]): 35 mg/L (≈ 82.7 µM)
7 | O=C(O)Cc1cn(C(=O)OCc2ccccc2)c2ccccc12 | > 1000 | 300 |  | 
8 | CC(C)(C)OC(=O)NC(Cc1ccccc1)CN(O)C=O (stereo not given) |  | 0.05 | > 300 | MIC (Bacillus subtilis [2]): > 300 mg/L; MIC (Escherichia coli [4]): 120 mg/L (≈ 408 µM); MIC (Bacillus subtilis [5]): > 300 mg/L; MIC (Bacillus subtilis [6]): > 300 mg/L; MIC (Bacillus subtilis [7]): 9 mg/L (≈ 30.6 µM)
9 | CC(=O)SCC(=O)Cc1cn(C(=O)OCc2ccccc2)c2ccccc12 | 500 | 350 |  | 
10 | O=C(CS)Cc1c[nH]c2ccc(Br)cc12 | 200 | 80 |  | 
11 | Cc1c(CNO)c2cc(Br)ccc2n1S(=O)(=O)c1ccccc1 | 500 | 6 |  | 
12 | CC(=O)SCC(=O)Cc1c[nH]c2ccc(Br)cc12 | 170 | 120 |  | 
13 | Cc1[nH]c2ccc(Br)cc2c1CNO | > 250 | 50 |  | 
14 | CCCCC[C@H](CC(=O)NO)C(=O)N[C@H](C(=O)N1CCC[C@H]1CO)C(C)C [ACTINONIN] | 0.027 | 0.01 | 34 (≈ 88.2 µM) | MIC (Bacillus subtilis [2]): 1 mg/L (≈ 2.59 µM); MIC (Bacillus subtilis [9]): 1.3 mg/L (≈ 3.37 µM); MIC (Escherichia coli [10]): 32 mg/L (≈ 83 µM); MIC (Escherichia coli [4]): 0.125 mg/L (≈ 0.324 µM); MIC (Bacillus subtilis [5]): 1 mg/L (≈ 2.59 µM); MIC (Bacillus subtilis [6]): 1 mg/L (≈ 2.59 µM); MIC (Bacillus subtilis [7]): 0.125 mg/L (≈ 0.324 µM)
15 | O=C(O)Cc1c[nH]c2ccccc12 [INDOLE-3-ACETIC ACID] | > 1000 | > 1000 |  | 

Reference: ChEMBL document CHEMBL1139216, “Discovery and refinement of a new structural class of potent peptide deformylase inhibitors” (J Med Chem, 2007)
